Entries after “also recorded” stand apart in the source; their conditions may differ. Like-named read-outs stand apart in the source and are kept apart here.
How the values were obtained:
[1] = test system: Ki-67, β-catenin, np β-catenin, Cyclin D1, c-Myc, p-ERK1/2, N-cadherin, E-cadherin; assay: Immunohistochemistry of tumor-bearing lung sections; conditions: 4 mg/kg, six cycles, score I × A, n = 5, control scored 8.3
Experimental: All samples were assayed in triplicate.
Construct a lung metastasis model of melanoma
The lung metastasis model o f melanoma was constructed as follows: B16F10 cells (5 × 10^5 cells per
100 µL) were transplanted into healthy C57BL/6 mice by intravenous injection at 5 -6 weeks of age.
After 3 days, the mice were randomly divided into the PBS control group, CA group (4 mg/kg),
HBBplus group (4 mg/kg), HBBplus@CA group (4 mg/ kg), HBBplus + CA group (4 mg/ kg) tail-vein
injected, every other day, summed six cycles. The experiment was terminated, and the mice were
euthanized. For histological examination, the tumor, liver, k idney, heart, spleen , and lung tissues
were fixed with formaldehyde, dehydrated, sliced into 4 μm sections, and subjected to H&E or
immunohistochemical staining.
H&E and immunohistochemistry (IHC) staining
Tumor-bearing lungs and primary organ tissues were dissected and immersed in formalin solution.
Then they were paraffin-embedded, sectioned with a 4 μm thick. Nextly, the sections were stained
with hematoxylin-eosin (H&E) according to standard histopathological techniques. Besides, under
conventional immunohistochemical staining, the expression of Ki -67 (Proteintech, USA; 1: 400),
β-catenin (Thermo Fisher, China; 1: 2000), np β-catenin (Cell Signaling Technology, USA; 1: 100), […]
1: 500) in tumor-bearing lungs sections were detected. […]

[2] = Self-assembly into nanospheres observed by TEM; format: physicochemical; conditions: peptide alone without CA
From the text: The hydrophobic tails of HBB^plus interact and gather together, forming a hydrophobic core. At the same time, the hydrophilic head interacts with water molecules to wrap around the core, forming a stable micelle structure. The hydrophobic drug CA will be encapsulated in the hydrophobic area of the micelles during micellar assembly. CA is immobilized inside the micelles by interacting with the hydrophobic tails of the micelles (hydrophobic interactions and hydrogen bonding) (Figure 1D). We used the GROMACS 2018.3 software package and combined it with the MARTINI coarse-grained model (version 2.2) to conduct dynamics simulations on a system composed of 24× HBB^plus peptide molecules and 100× CA molecules in an aqueous solution during 5000 ns. […] To verify it, CA was mixed with HBB^plus in mass ratios ranging from 4:1 to 0.25:1. […] Furthermore, there was a strong positive correlation between the concentration of CA and particle size (Figure 1E). […]
Zetasizer Nano ZS system). The surface chemical structure of modified nanocrystals was evaluated […]
The in vitro cell viability was measured […]

[3] = test system: B16F10 lung metastasis; assay: Ex vivo fluorescence biodistribution in mice with pulmonary metastatic melanoma; conditions: Cy5-SE labelled, i.v. 200 μL (1 mg/mL), tumor-bearing C57BL/6 mice, organs at 12 h and 24 h
[4] = test system: B16F10 cells; assay: Cell clone formation assay; format: cell-based, mouse; conditions: 7 days of drug treatment
[5] = test system: B16F10 pulmonary metastasis of melanoma; assay: Lung metastasis model of melanoma; format: in vivo; conditions: 5×10^5 B16F10 cells i.v., 4 mg/kg every other day, six cycles, day 24, n = 5, mean ± s.d.; PBS group 94 ± 41
[6] = test system: B16F10 cells; assay: Cell apoptosis by flow cytometry (FITC Annexin V/PI); format: cell-based, mouse; conditions: 40 μM, 24 h
Experimental: (§1) Scratch wound healing assay […]
(§2) monolayer with a pipette tip (100 μL). The monolayer membrane was washed with PBS three times, […]
(§3) Detection Kit (BD Falco, China). […]
(§4) for 24 h at a concentration of 40 μM.
(§5) FITC-labeled HBB, HBBplus, and […]
(§6) it for 10 min. […] DAPI (Sigma-Aldrich,
(§7) Finally, a super-resolution confocal microscope was used to observe the cell uptake situation.

[7] = test system: B16F10 cells; assay: Transwell migration and invasion assays; format: cell-based, mouse; conditions: 30 μM, 24h-48h
Experimental: (§8) As a next step, we tested the ability of supramolecular peptides to prevent tumor cell migration and invasion. […] Meanwhile, a scratch wound was harvested as part of the migration assay, and the healing process was observed. Based on a digital image, the areas of scratching without cells immediately following scratching and those of scratching without cells after the assay was calculated. […] We observed the same results in the transwell migration assay. Furthermore, tumor cells' invasive abilities play a critical role in metastasis. Using a transwell invasion assay (Figure 4G), we assessed the ability of HBB^plus@CA to inhibit tumor cell invasion.
performed on a Talos F200X.
The hydrodynamic size distribution (1
Zetasizer Nano ZS system). The surface chemical structure of modified nanocrystals was evaluated
(Shimadzu 3000 spectrophotometer). The structural identification of modified nanocrystals was
and 100 μg/mL streptomycin.
The in vitro cell viability was measured
containing 15% FBS medium for 24h -48h. Cells that migrated or invaded across the membrane

[8] = test system: B16F10 cells; assay: Cell viability, Alamar blue
Experimental: (§9) To explore the antitumor properties of HBB^plus@CA at the cellular level, we measured the viability of B16F10 cells after treatment with HBB^plus@CA.
(§10) Mouse melanoma cell line B16F10, mouse macrophage cell line RAW 264.7, and human leukemic
(§11) T-cell line Jurkat were obtained from the Chinese Academy of Science Cell Bank (Shanghai, China).
(§12) B16F10 and RAW 264.7 cells were maintained in DMEM medium, Jurkat was cultured in RPMI-
(§13) 1640 medium, and the above mediums were supplemented with 10% FBS, 100 U/mL penicillin,
(§14) and 100 μg/mL streptomycin. All cells were maintained at 37°C in an atmosphere of 5% CO2.
(§15) Melanoma cells B16F10 were inoculated uniformly in 96 empty plates according to 2000 cells.
(§16) After 24 h, different gradient concentrations of HBB plus@CA or CA, HBB, or RGDSP-X were
(§17) intervened at 37°C in an atmosphere of 5% CO 2 for 72 h. The in vitro cell viability was measured
(§18) using a standard Alamar blue (Thermo Fisher Scientific, China) assay in the B16F10 cell s.

[9] = test system: B16F10 cells; assay: Scratch wound healing assay; format: cell-based, mouse; conditions: 60 μM, 24 h, 1% FBS; for migration rate: Image J, triplicate
Experimental: as §8, §1, §2, §3, §4, §5, §6, §7

[10] = test system: p-ERK1/2; assay: Western blot, p-ERK1/2; format: cell-based, mouse; conditions: B16F10 cells
[11] = test system: B16F10 cells
Experimental: as §9, §10, §11, §12, §13, §14, §15, §16, §17, §18

[12] = Acute toxicity test in vivo; conditions: healthy C57BL/6 mice; for body weight: every other day, six cycles
[13] = test system: β-catenin, np-β-catenin, c-Myc; assay: Western blot, Wnt/β-catenin pathway proteins; format: cell-based, mouse; conditions: B16F10 cells, 24 h

## RGDSPENPRLLGNVLVCVLA [HBB^plus]
[1]
  Ki-67 expression score (IHC): 6.2
[2]
  self-assembly into nanospheres: incapable of undergoing such a process
[3]
  tumor accumulation (biodistribution): superior tumor accumulation compared to HBB
[4]
  clone formation: more potent antiproliferative activity
[5]
  number of metastatic lung foci: 32 ± 12 per lung
[6]
  apoptosis of tumor cells: significantly effective in increasing the apoptosis
[7]
  transwell migration and invasion: inhibited the migration
[8]; B16F10 cells, 72 h, Alamar blue
  cytotoxicity / antiproliferative activity: more potent antiproliferative activity
[9]
  migration in scratch assay: inhibited the migration
  migration rate: ~ 36%
[10]
  level of p-ERK1/2: reduced the level; also recorded: significantly down-regulated

## CC(C)c1cc2c(c(O)c1O)[C@@]1(C(=O)O)CCCC(C)(C)[C@@H]1CC2 [CA, carnosic acid]
[11]
  cytotoxicity / antiproliferative activity: concentration-dependent cytotoxicity
[1]
  Ki-67 expression score (IHC): 5.7
[12]; 4-40 mg/kg
  renal function tests (urea nitrogen, creatinine): did not cause severe nephrotoxicity
[12]; 4-40 mg/kg, n = 3/group, versus controls
  RBC, WBC, PLT, HGB, GRAN, Mon, Lymph in blood: neither HBB^plus@CA nor CA affected
[12]; 5× doses (20 mg/kg)
  body weight: notable weight loss
[12]; 10× doses (40 mg/kg)
  ALT and AST (liver function): elevations of ALT and AST
  body weight: notable weight loss
[12]; low-dose and high-dose groups
  H&E staining of lung tissue: inflammatory cell infiltration
[12]; up to high dose, ELISA, n = 3/group
  TNF-α, IFN-γ and EPO levels of peripheral blood: did not significantly increase
[13]
  β-catenin, np-β-catenin and c-Myc protein expression: significantly downregulated
[4]
  clone formation: significantly reduced the number of clones
[5]
  number of metastatic lung foci: 37 ± 10 per lung
[8]; Mus musculus, B16-F10, 72 h, read-out: IC50 (cell viability)
  IC50: 29.2 ± 4.68 µM
[9]
  migration rate: ~ 27%

Reference: paper PMC10334834, “A de novo dual-targeting supramolecular self-assembly peptide against pulmonary metastasis of melanoma” (Theranostics, 2023)
